The source of these data is patent US6974824B2, “Kappa opioid receptor ligands” (Research Triangle Institute, priority 2001, dated 2005).

For assay [1], the target named is delta opioid receptor (UniProt P33533). Put plainly: Radioligand competitive binding, [3H]DADLE.
The target in assay [2] is T1, delta opioid receptor (Cavia porcellus, UniProt A0A286XTF2). The following applies: read-out: Apparent Functional Ki (nM ± SD) δ DADLE; [35S]GTP-γ-S, guinea pig caudate, SNC-80-stimulated (footnote b). For orientation: GTPγS resists hydrolysis and so accumulates on activated G proteins.
In assay [3] the target is mu opioid receptor (Cavia porcellus, UniProt A0ACM8Q262). Put plainly: Inhibition of DAMGO-stimulated [35S]GTP-γ-S binding in guinea pig caudate. Type of assay: biochemical. The settings on record: read-out: Apparent Functional Ki (nM ± SD) μ DAMGO.
The target of assay [4] is T2, kappa opioid receptor (Cavia porcellus, UniProt P41144). Kind of assay: Radioligand competitive binding, [3H]U69,593. The settings on record: for Ki: read-out: K1 (nM ± SD) κ [3H]U69,593, radioligand binding, [3H]U69,593.
Assay [5] deals with mu opioid receptor (UniProt P33535). Kind of assay: Radioligand competitive binding, [3H]DAMGO. The settings on record: read-out: K1 (nM ± SD) μ [3H]DAMGO.
Assay [6] deals with kappa opioid receptor. Put plainly: Radioligand competitive binding, [3H]U69,593. The following applies: ratio of binding Ki values, Table 1.
For assay [7], the target named is cloned human kappa opioid receptor (Homo sapiens, UniProt P41145). Put plainly: Inhibition of U69,593-stimulated [35S]GTP-γ-S binding in cloned human opioid receptors. The following applies: cloned human functional assay versus binding assay.
Assay [8] addresses T1, delta opioid receptor. Kind of assay: biochemical.
In assay [9] the target is T2, kappa opioid receptor. Put plainly: Inhibition of U69,593-stimulated [35S]GTP-γ-S binding in guinea pig caudate.
Where [10] appears, read: read-out: K1 (nM ± SD) δ [3H]DADLE; radioligand binding, [3H]DADLE.
The mark [11] stands for this setting: radioligand binding, [3H]DADLE; read-out: K1 (nM ± SD) δ [3H]DADLE.

Like-named read-outs stand apart in the source and are kept apart here.

As for `Oc1ccc2c3c1O[C@H]1c4[nH]c5c(c4C[C@@]4(O)[C@@H](C2)N(CC2CC2)CC[C@]314)C[C@@]1(O)[C@H]2Cc3ccc(O)c4c3[C@@]1(CCN2CC1CC1)[C@H]5O4` [6, nor-BNI, nor-binaltorphimine, reference compound], the values for the Ki on delta opioid receptor [1] (setting [10]), on delta opioid receptor [2] and on mu opioid receptor [3] were 86 nM, 10.2 nM and 16.7 nM, respectively.

`CC(C)[C@@H](CN1CC[C@@](C)(c2cccc(O)c2)[C@@H](C)C1)NC(=O)[C@@H]1Cc2ccc(O)cc2CN1` [Compound 15, (3S)-7-Hydroxy-N-((1S)-1-{[(3R,4R)-4-(3-hydroxyphenyl)-3,4-dimethyl-1-piperidinyl]methyl}-2-methylpropyl)-1,2,3,4-tetrahydro-3-isoquinolinecarboxamide]: the results for the Ki on delta opioid receptor [1] (setting [11]), on kappa opioid receptor [4] and at mu opioid receptor [5] were more than 4900 nM, 9.8 ± 1.6 nM and 596 ± 29 nM, respectively.

In the case of `CC(C)[C@@H](CN1CC[C@@](C)(c2cccc(O)c2)[C@@H](C)C1)NC(=O)[C@H]1Cc2ccccc2CN1` [Compound 16, (3R)-N-((1S)-1-{[(3R,4R)-4-(3-Hydroxyphenyl)-3,4-dimethyl-1-piperidinyl]methyl}-2-methylpropyl)-1,2,3,4-tetrahydro-3-isoquinolinecarboxamide], the Ki at delta opioid receptor [1] (setting [10]) was more than 4900 nM; on kappa opioid receptor [4], 2.1 nM; at mu opioid receptor [5], 775 ± 75 nM. The δ/κ in the assay on kappa opioid receptor [6] is listed as more than 2333. The μ/κ in the assay on kappa opioid receptor [6] turned out to be 369.

For `CC(C)[C@@H](CN1CC[C@@](C)(c2cccc(O)c2)[C@@H](C)C1)NC[C@H]1Cc2ccc(O)cc2CN1C` [Compound 20, (3R)-3-{[((1S)-1-{[(3R,4R)-4-(3-Hydroxyphenyl)-3,4-dimethyl-1-piperidinyl]methyl}-2-methylpropyl)amino]methyl}-2-methyl-1,2,3,4-tetrahydro-7-isoquinolinol], the Ki on delta opioid receptor [1] (setting [11]) was found to be 2230 ± 187 nM; at kappa opioid receptor [4], 0.55 ± 0.04 nM; at mu opioid receptor [5], 59 ± 2.5 nM. In the assay on kappa opioid receptor [6], the δ/κ was determined as 4056. Also, in the assay on kappa opioid receptor [6], the μ/κ is 107.

As for `CC(C)[C@@H](CN1CC[C@@](C)(c2cccc(O)c2)[C@@H](C)C1)NC(=O)[C@H]1Cc2ccc(O)cc2CN1C(=O)CN(C)C` [Compound 17, (3R)-2-(N,N-Dimethylglycyl)-7-hydroxy-N-((1S)-1-{[(3R,4R)-4-(3-hydroxyphenyl)-3,4-dimethyl-1-piperidinyl]methyl}-2-methylpropyl)-1,2,3,4-tetrahydro-3-isoquinolinecarboxamide], the Ki on delta opioid receptor [1] (setting [10]) is more than 3400 nM; at kappa opioid receptor [4], 15 ± 1.2 nM; at mu opioid receptor [5], 164 ± 10.5 nM. Further, the δ/κ in the assay on kappa opioid receptor [6] was more than 219. Besides, the μ/κ with kappa opioid receptor [6] is on record as 11.

Turning to `CC(C)[C@@H](CN1CC[C@@](C)(c2cccc(O)c2)[C@@H](C)C1)NC(=O)[C@@H]1Cc2ccc(O)cc2CN1C` [Compound 18, (3S)-7-Hydroxy-N-((1S)-1-{[(3R,4R)-4-(3-hydroxyphenyl)-3,4-dimethyl-1-piperidinyl]methyl}-2-methylpropyl)-2-methyl-1,2,3,4-tetrahydro-3-isoquinolinecarboxamide], the Ki on delta opioid receptor [1] (setting [10]) was 616 ± 59 nM. The “potency relative to the reference compound nor-BNI (6)” value at kappa opioid receptor [4] (opioid receptor binding data, kappa) turned out to be 20 fold. Also, in the assay with kappa opioid receptor [6], the δ/κ turned out to be 11622 and the μ/κ stood at 700. Besides, the Ki at mu opioid receptor [5] was 37 ± 1.4 nM.

Turning to `CC(C)[C@@H](CN1CC[C@@](C)(c2cccc(O)c2)[C@@H](C)C1)NC(=O)[C@H]1Cc2ccc(O)cc2CN1` [Compound 14, (3R)-7-Hydroxy-N-((1S)-1-{[(3R,4R)-4-(3-hydroxyphenyl)-3,4-dimethyl-1-piperidinyl]methyl}-2-methylpropyl)-1,2,3,4-tetrahydro-3-isoquinolinecarboxamide], the “improvement in kappa receptor Ki compared with the binding assay” value in [7] is given as 53 fold. Also, the Ki at delta opioid receptor [1] (setting [11]) was 301 ± 50 nM; at delta opioid receptor [8], more than 300 nM; on mu opioid receptor [3] it was 2.16 ± 0.75 nM; on kappa opioid receptor [9], 0.02 nM; at mu opioid receptor [5] it was 3.73 ± 0.17 nM.

On to `CC(C)[C@@H](CN1CC[C@](C)(c2cccc(O)c2)[C@H](C)C1)NC(=O)[C@H]1Cc2ccc(O)cc2CN1` [Compound 21, (3R)-7-Hydroxy-N-((1S)-1-{[(3S,4S)-4-(3-hydroxyphenyl)-3,4-dimethyl-1-piperidinyl]methyl}-2-methylpropyl)-1,2,3,4-tetrahydro-3-isoquinolinecarboxamide], for which the Ki turned out to be 144 ± 15 nM on delta opioid receptor [1] (setting [11]), 17.5 ± 2.5 nM on kappa opioid receptor [4] and 138 ± 8 nM at mu opioid receptor [5].

For the compound `CC(C)[C@@H](CN1CC[C@@](C)(c2cccc(O)c2)[C@@H](C)C1)NC[C@H]1Cc2ccc(O)cc2CN1` [Compound 19, (3R)-3-{[((1S)-1-{[(3R,4R)-4-(3-Hydroxyphenyl)-3,4-dimethyl-1-piperidinyl]methyl}-2-methylpropyl)amino]methyl}-1,2,3,4-tetrahydro-7-isoquinolinol], the Ki at delta opioid receptor [1] (read-out: K1 (nM ± SD) δ [3H]DADLE) came out at 5570 ± 713 nM; on kappa opioid receptor [4] it was 0.63 ± 0.05 nM.
